Among the test systems are HCT-116 colon; CCRF-CEM leukemia; SF-295 CNS; NCI-H226 lung; RPMI-8226 leukemia; HCT-15 colon; NCI-H522 lung; BT-549 breast; M14 melanoma; SN12C renal.
What all share (experiment): growth of human tumour cells (NCI), 48 h

Values joined by “and” are separate entries in the source; they are usually repeats but may differ in a detail not shown here. Identical values can stand only once.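 The compound was tested at five concentrations on cells cultured in 96-well plates, with a 48-hour exposure period. GI50 = concentration required for 50% inhibition of growth. At the TGI there is no net growth.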 Bounds are passed on as bounds.

Regarding `C=C1CC[C@@H]2[C@](C)(COC(C)=O)[C@H](OC(C)=O)CC[C@@]2(C)[C@@H]1CC(Nc1ccc(S(=O)(=O)NC(C)=O)cc1)C1=CCOC1=O` (stereo partly specified), the GI50 with HCT-116 colon was 1.67 µM; with CCRF-CEM leukemia it was 1.93 µM; in the experiment with SF-295 CNS it was 11.5 µM; in the experiment on NCI-H226 lung, 1.92 µM; in the experiment on RPMI-8226 leukemia, 1.84 µM; in the experiment on HCT-15 colon it was 1.53 µM. Besides, the GI50 in the experiment with NCI-H522 lung was 1.44 µM; in the experiment with BT-549 breast, 2.32 µM; in the experiment with M14 melanoma, 2.86 µM; in the experiment with SN12C renal, 1.78 µM. Further, the TGI turned out to be 3.66 µM in the experiment on HCT-116 colon; 6.26 µM in the experiment with CCRF-CEM leukemia; 22 µM with SF-295 CNS; 4.62 µM in the experiment on NCI-H226 lung; 6.53 µM with RPMI-8226 leukemia; 4.36 µM with HCT-15 colon. The TGI in the experiment with NCI-H522 lung came to 4.42 µM; with BT-549 breast, 7.93 µM; in the experiment with M14 melanoma, 11.9 µM; with SN12C renal it was 5.4 µM.

Regarding `CN(c1ncccc1CNc1nc(Nc2ccc3c(c2)CC(=O)N3)ncc1C(F)(F)F)S(C)(=O)=O`, the GI50 in the experiment on HCT-116 colon was 1.52 µM and 2.5 µM; in the experiment with CCRF-CEM leukemia it was 3 µM and 2.46 µM; in the experiment with SF-295 CNS, 2.2 µM and 2.55 µM; in the experiment with NCI-H226 lung it was 2.38 µM and 2.25 µM; in the experiment with RPMI-8226 leukemia, 2.75 µM and 2.39 µM; with HCT-15 colon, 5.14 µM and 4.9 µM. The GI50 with NCI-H522 lung is 1.81 µM and 2.24 µM; in the experiment on BT-549 breast, 2.21 µM and 2.53 µM; in the experiment with M14 melanoma, 1.87 µM and 2.91 µM; in the experiment on SN12C renal it was 2.88 µM and 2.95 µM. Also, the TGI is 12.6 µM and > 10 µM in the experiment on HCT-116 colon; greater than 100 µM in the experiment on SF-295 CNS; 7.97 µM and > 10 µM in the experiment on NCI-H226 lung; 10.2 µM and 6.94 µM with RPMI-8226 leukemia; greater than 80.5 µM in the experiment with HCT-15 colon; 5.41 µM and 7.71 µM in the experiment with NCI-H522 lung. Also, the TGI was 7 µM and 9.25 µM in the experiment with BT-549 breast; 5.49 µM and > 10 µM with M14 melanoma; greater than 100 µM in the experiment on SN12C renal.

For `COc1ccc2c(c1OC)C[C@@H]1c3c(cc4c(c3-2)OCO4)CCN1C`, the TGI was 47.3 µM with HCT-116 colon; 51.6 µM with CCRF-CEM leukemia; 31.3 µM with SF-295 CNS; 47 µM with NCI-H226 lung; 42.9 µM with RPMI-8226 leukemia; greater than 100 µM with HCT-15 colon. For the same molecule, the TGI with NCI-H522 lung is 62.9 µM; in the experiment on BT-549 breast, greater than 100 µM; in the experiment with M14 melanoma it was 84.8 µM; with SN12C renal, greater than 100 µM.

With `COc1ccc(C2CC(c3cccc(Nc4ccnc5cc(Cl)ccc45)c3)=NN2C=O)cc1` (stereo unspecified), the GI50 with HCT-116 colon is 0.398 µM; in the experiment with CCRF-CEM leukemia, 0.434 µM; in the experiment with SF-295 CNS it was 0.311 µM; in the experiment on NCI-H226 lung, 39.3 µM; with RPMI-8226 leukemia it was 3.64 µM; in the experiment on HCT-15 colon, 0.541 µM. Also, the GI50 is 0.265 µM in the experiment with NCI-H522 lung, 0.486 µM in the experiment on BT-549 breast, 0.374 µM in the experiment with M14 melanoma and 0.807 µM in the experiment with SN12C renal. In addition, the TGI with HCT-116 colon is 2.56 µM; in the experiment on SF-295 CNS it was 2.57 µM; with NCI-H226 lung, greater than 100 µM; with RPMI-8226 leukemia, greater than 24 µM; in the experiment with HCT-15 colon, greater than 100 µM; in the experiment on NCI-H522 lung, 3.06 µM. Besides, the TGI in the experiment on BT-549 breast was 9.86 µM; with M14 melanoma, 21.2 µM; in the experiment with SN12C renal it was greater than 100 µM.

`Fc1cccc(COc2ccc(Nc3ncnc4sc(-c5cccs5)cc34)cc2Cl)c1`: the GI50 in the experiment with HCT-116 colon is 7.59 µM; with CCRF-CEM leukemia, greater than 25 µM; with SF-295 CNS, 9.81 µM; with NCI-H226 lung, 4.58 µM; in the experiment on RPMI-8226 leukemia, greater than 25 µM; in the experiment on HCT-15 colon it was 9.11 µM. In addition, the GI50 in the experiment with NCI-H522 lung is 7.55 µM; in the experiment on BT-549 breast it was 6.25 µM; in the experiment on M14 melanoma it was 7.66 µM; in the experiment on SN12C renal, 9.2 µM. The TGI is greater than 23.8 µM with HCT-116 colon; greater than 25 µM in the experiment with CCRF-CEM leukemia; greater than 25 µM with SF-295 CNS; 15.2 µM with NCI-H226 lung; greater than 25 µM in the experiment on RPMI-8226 leukemia; greater than 25 µM in the experiment on HCT-15 colon. The TGI in the experiment on NCI-H522 lung was greater than 22.4 µM; in the experiment on BT-549 breast, 15.6 µM; in the experiment on M14 melanoma, greater than 25 µM; with SN12C renal, greater than 25 µM.

Consider `CCN(CC)c1ccc(/C=N/NC(=O)CSc2nc3ccccc3c(=O)n2CCc2ccc(S(N)(=O)=O)cc2)c(O)c1`, for which the GI50 with HCT-116 colon was 0.927 µM; in the experiment on CCRF-CEM leukemia it was 0.326 µM; in the experiment with SF-295 CNS, 4.01 µM; in the experiment with NCI-H226 lung it was 1.34 µM; in the experiment with RPMI-8226 leukemia it was 0.417 µM; with HCT-15 colon, 2.82 µM. The GI50 was 3.17 µM with NCI-H522 lung, 2.21 µM with BT-549 breast, 0.754 µM in the experiment on M14 melanoma and 1.86 µM in the experiment with SN12C renal. For the same molecule, the TGI in the experiment with HCT-116 colon is 10.7 µM; with CCRF-CEM leukemia, 4.35 µM; with SF-295 CNS, greater than 100 µM; in the experiment on NCI-H226 lung, greater than 100 µM; in the experiment on RPMI-8226 leukemia, 2.44 µM; with HCT-15 colon it was greater than 100 µM. Further, the TGI with NCI-H522 lung was greater than 100 µM; with BT-549 breast, greater than 100 µM; in the experiment on M14 melanoma, 7.2 µM; in the experiment with SN12C renal it was greater than 100 µM.

As to `C/C(=N\NC(=S)N1CCCCC1)c1ccccn1`, the GI50 is less than 0.01 µM in the experiment with HCT-116 colon; less than 0.0143 µM in the experiment with CCRF-CEM leukemia; less than 0.0115 µM in the experiment with SF-295 CNS; 0.32 µM in the experiment on NCI-H226 lung; 0.016 µM in the experiment on RPMI-8226 leukemia; less than 0.0169 µM with HCT-15 colon. Besides, the GI50 was 0.136 µM in the experiment with NCI-H522 lung, 0.745 µM in the experiment with BT-549 breast, less than 0.0148 µM with M14 melanoma and 0.29 µM with SN12C renal. In addition, the TGI with HCT-116 colon was 1.52 µM; with CCRF-CEM leukemia, greater than 25.1 µM; in the experiment with SF-295 CNS, 4.5 µM; in the experiment on NCI-H226 lung it was 2.95 µM; with RPMI-8226 leukemia, 0.849 µM; in the experiment with HCT-15 colon it was 12.6 µM. Also, the TGI in the experiment on NCI-H522 lung was 1.51 µM; in the experiment on BT-549 breast, 5.27 µM; in the experiment with M14 melanoma it was 2.23 µM; in the experiment with SN12C renal, 14.3 µM.

On to `Nc1nccc(-c2c(-c3ccc(F)cc3)ncn2C2CCNCC2)n1`, for which the GI50 with HCT-116 colon is 3.52 µM and 1.47 µM; with CCRF-CEM leukemia it was 13.2 µM and 4.52 µM; in the experiment on SF-295 CNS, > 12.4 µM and 5.75 µM; with NCI-H226 lung, 1.27 µM and 3.97 µM; in the experiment on RPMI-8226 leukemia, 12.6 µM and 7.07 µM; with HCT-15 colon, > 25 µM and 6.43 µM. In addition, the GI50 with NCI-H522 lung is 6.98 µM and 2.04 µM; in the experiment with BT-549 breast, 17.2 µM and 12 µM; with M14 melanoma, 13.3 µM and 3.85 µM; in the experiment on SN12C renal, 7.71 µM and 2.13 µM. The TGI in the experiment with HCT-116 colon is greater than 25 µM; with CCRF-CEM leukemia, greater than 25 µM; in the experiment on SF-295 CNS it was greater than 25 µM; in the experiment on NCI-H226 lung it was > 21.2 µM and 20.1 µM; in the experiment with RPMI-8226 leukemia, greater than 25 µM; in the experiment with HCT-15 colon, greater than 25 µM. In addition, the TGI is > 25 µM and 7.22 µM in the experiment with NCI-H522 lung; greater than 25 µM in the experiment on BT-549 breast; greater than 25 µM in the experiment on M14 melanoma; greater than 25 µM in the experiment with SN12C renal.

As for `O=c1c2c(=NCCN3CCCC3)cc3c(=O)n(CCCN4CCOCC4)c(=O)c4c(-c5ccc(CN6CCCC6)cc5)cc(c(O)n1CCCN1CCOCC1)c2c4-3`, the GI50 in the experiment with HCT-116 colon is 0.0101 µM; in the experiment with CCRF-CEM leukemia, 0.0673 µM; in the experiment on SF-295 CNS it was 0.164 µM; in the experiment on NCI-H226 lung it was 0.0523 µM; with RPMI-8226 leukemia it was 0.0368 µM; with HCT-15 colon, 0.0664 µM. Moreover, the GI50 was 0.0265 µM with NCI-H522 lung, 0.116 µM with BT-549 breast, 0.136 µM in the experiment with M14 melanoma and less than 0.0221 µM in the experiment on SN12C renal. Further, the TGI in the experiment on HCT-116 colon was determined as 0.209 µM; with CCRF-CEM leukemia, 1.05 µM; in the experiment on SF-295 CNS, 0.796 µM; with NCI-H226 lung it was 0.49 µM; in the experiment on RPMI-8226 leukemia, 0.409 µM; in the experiment with HCT-15 colon, 1.11 µM. Moreover, the TGI in the experiment on NCI-H522 lung turned out to be 0.135 µM; in the experiment with BT-549 breast, 0.5 µM; in the experiment on M14 melanoma, 0.641 µM; with SN12C renal, 1.37 µM.

Turning to `CCN1C/C(=C\c2cc(OC)c(OC)cc2OC)C(=O)/C(=C/c2cc(OC)c(OC)cc2OC)C1`, the GI50 in the experiment with HCT-116 colon is 1.84 µM; in the experiment with CCRF-CEM leukemia, 2.96 µM; with SF-295 CNS, 2.3 µM; with NCI-H226 lung, 2.59 µM; with RPMI-8226 leukemia, 2.35 µM; in the experiment on HCT-15 colon, 2.96 µM. Besides, the GI50 with NCI-H522 lung is 3.05 µM; with BT-549 breast, 2.87 µM; with M14 melanoma, 2.3 µM; in the experiment with SN12C renal, 3.11 µM. The TGI was 3.84 µM in the experiment on HCT-116 colon; greater than 100 µM in the experiment on CCRF-CEM leukemia; 4.89 µM in the experiment on SF-295 CNS; 5.59 µM in the experiment with NCI-H226 lung; 6.78 µM in the experiment on RPMI-8226 leukemia; 11.3 µM with HCT-15 colon. The TGI came out at 12 µM with NCI-H522 lung, 8.72 µM in the experiment with BT-549 breast, 5.37 µM in the experiment with M14 melanoma and 9.14 µM with SN12C renal.

Consider `COc1ccc(C2=N[C@@H](Cc3ccccc3)C(=O)Nc3ccsc32)cc1`, for which the GI50 with HCT-116 colon was 5.38 µM; in the experiment on CCRF-CEM leukemia, 3.46 µM; in the experiment with NCI-H226 lung it was 11.2 µM; with RPMI-8226 leukemia, 3.29 µM; in the experiment with HCT-15 colon, 3.9 µM; with NCI-H522 lung it was 2.71 µM. Also, the GI50 in the experiment with BT-549 breast was 10.6 µM; in the experiment with M14 melanoma, 3.66 µM; with SN12C renal, 8.28 µM. Moreover, the TGI in the experiment on HCT-116 colon is 17.7 µM; with CCRF-CEM leukemia it was 28.1 µM; in the experiment on NCI-H226 lung, 42 µM; with RPMI-8226 leukemia it was 18.8 µM; in the experiment on HCT-15 colon, 20.4 µM; in the experiment with NCI-H522 lung, 8.98 µM. For the same molecule, the TGI was found to be 28.5 µM in the experiment with BT-549 breast, 12.6 µM in the experiment with M14 melanoma and 25.7 µM in the experiment on SN12C renal.

The values above are taken from PubChem BioAssay (NCI).
